Reference: the supplement of paper PMC10307832

How the values were obtained:
Assay in all cases: relative viability (nuclei count vs DMSO), 5 days (fraction); higher = more cells survive
[1] = compound: C1=CC=C(C(=C1)C2=CC=C(C=C2)C3=CSC4=C3C(=C(C(=O)N4)C#N)O)O + CS(=O)(=O)CCNCc1ccc(-c2ccc3ncnc(Nc4ccc(OCc5cccc(F)c5)c(Cl)c4)c3c2)o1 [Lapatinib] (partner 2 µM)
Outline: (§1)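 For relative viability, nuclei counts in treated wells were divided by those in vehicle wells. Lung cancer cell lines had been pin-tool dosed in 1536-well plates the day after seeding and cultured for 5 days, then fixed and stained in one step (final 0.05% Triton X-100, 1% formaldehyde, 1 ug/ml Hoechst) and imaged at 4×. Doses were one drug alone or a fixed anchor-drug dose plus five library-drug doses (not always all listed) in √10 steps, and values are duplicate-plate medians.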

[2] = compound: O=C(CCCCCCNC(=O)c1cnc(N(c2ccccc2)c2ccccc2)nc1)NO [Ricolinostat] + CS(=O)(=O)N1CCN(Cc2cc3nc(-c4cccc5[nH]ncc45)nc(N4CCOCC4)c3s2)CC1 [Pictilisib] (partner 1 µM)
Outline: as §1

[3] = compound: O=C(CCCCCCNC(=O)c1cnc(N(c2ccccc2)c2ccccc2)nc1)NO [Ricolinostat] + CC(=O)c1c(C)c2cnc(Nc3ccc(N4CCNCC4)cn3)nc2n(C2CCCC2)c1=O [Palbociclib] (partner 0.5 µM)
Outline: as §1

[4] = compound: O=C(CCCCCCNC(=O)c1cnc(N(c2ccccc2)c2ccccc2)nc1)NO [Ricolinostat] + Nc1ncn([C@H]2C[C@H](O)[C@@H](CO)O2)c(=O)n1 [Decitabine] (partner 2 µM)
Outline: as §1

Row | Cell Line | relative viability ([1]; first compound 0.08 µM) | relative viability ([1]; first compound 0.253 µM) | relative viability ([1]; first compound 0.8 µM) | relative viability ([1]; first compound 2.53 µM) | relative viability ([1]; first compound 8 µM) | relative viability ([2]; first compound 0.253 µM) | relative viability ([2]; first compound 0.8 µM) | relative viability ([2]; first compound 2.53 µM) | relative viability ([3]; first compound 0.08 µM) | relative viability ([3]; first compound 0.253 µM) | relative viability ([3]; first compound 0.8 µM) | relative viability ([3]; first compound 2.53 µM) | relative viability ([4]; first compound 0.08 µM) | relative viability ([4]; first compound 0.253 µM) | relative viability ([4]; first compound 0.8 µM) | relative viability ([4]; first compound 2.53 µM) | relative viability ([2]; first compound 0.08 µM)
1 | NCI-H647 | 0.447 | 1.2 | 1.11 | 1.16 | 0.871 | 0.42 | 0.415 | 0.456 | 0.391 | 0.338 | 0.407 | 0.266 | 0.365 | 0.317 | 0.31 | 0.312 | –
2 | NCI-H1975 | 0.756 | 1.01 | 0.832 | 0.895 | 0.766 | 0.309 | – | 0.231 | 0.709 | 0.607 | 0.607 | 0.471 | 0.371 | 0.394 | 0.382 | 0.379 | 0.283
3 | NCI-H1648 | – | – | – | – | – | – | – | – | – | 0.305 | 0.252 | 0.196 | – | 0.506 | 0.486 | 0.316 | –
4 | NCI-H2126 | 0.737 | 0.748 | 0.728 | 0.766 | 0.834 | 0.497 | 0.459 | 0.383 | 0.347 | 0.347 | 0.353 | 0.363 | 0.563 | 0.555 | 0.561 | 0.481 | 0.393
5 | EBC-1 | 0.265 | 0.226 | 0.223 | 0.209 | 0.173 | 0.403 | 0.26 | 0.165 | – | – | – | – | – | – | – | – | 0.372
6 | NCI-H1651 | 0.697 | 0.799 | 0.78 | 0.821 | 0.683 | 0.55 | 0.571 | 0.44 | 0.499 | 0.512 | 0.512 | 0.542 | 0.466 | 0.644 | 0.56 | 0.521 | 0.612
7 | HCC-827 | 0.185 | 0.201 | 0.197 | 0.184 | 0.18 | 0.965 | 0.948 | 1.09 | 0.335 | 0.548 | 0.487 | 0.573 | 0.32 | 0.327 | 0.233 | 0.274 | 0.956
8 | NCI-H2085 | 0.608 | 0.841 | 0.677 | 0.685 | 0.671 | 0.447 | 0.431 | 0.416 | – | 0.461 | 0.426 | 0.478 | – | 0.51 | 0.557 | 0.512 | –
9 | EPLC-272H | – | 0.924 | 0.849 | 0.897 | 1.01 | 0.343 | 0.285 | 0.355 | – | 0.325 | 0.332 | 0.237 | – | 0.36 | 0.368 | 0.325 | –
10 | A-427 | 0.917 | 1.06 | 1.2 | 1.03 | 1.2 | 0.722 | 0.781 | 0.757 | 0.503 | 0.531 | 0.474 | 0.457 | 0.547 | 0.591 | 0.559 | 0.558 | 0.626
11 | NCI-H2228 | 0.701 | 1.33 | 0.814 | 0.998 | 1.1 | 0.407 | 0.355 | 0.24 | 0.874 | 0.895 | 0.9 | 0.504 | – | – | – | – | 0.309
12 | ABC-1 | 1.52 | 1.49 | 1.42 | 1.13 | 0.997 | 0.731 | 0.606 | 0.446 | 0.585 | 0.631 | 0.8 | 0.612 | 0.829 | 1.03 | 0.989 | 1.03 | 0.541
13 | EMC-BAC-2 | 0.76 | 1 | 0.917 | 0.894 | 0.812 | 0.578 | 0.558 | 0.442 | 0.525 | 0.496 | 0.47 | 0.405 | 0.796 | 0.938 | 0.901 | 0.722 | 0.433
14 | NCI-H2405 | 1.01 | 1.12 | 1.11 | 0.984 | 1.04 | 0.494 | 0.412 | 0.277 | 0.517 | 0.554 | 0.542 | 0.571 | 0.671 | 0.749 | 0.804 | 0.797 | 0.389
15 | ChaGo-K-1 | – | – | – | – | – | 0.676 | 0.616 | 0.625 | 0.93 | 0.947 | 0.901 | 0.837 | 0.58 | 0.495 | 0.51 | 0.509 | 0.916
16 | NCI-H522 | – | – | – | – | – | – | – | – | 1.14 | 1.18 | 1.08 | 1.21 | 0.641 | 0.702 | 0.714 | 0.642 | –
17 | Calu-6 | 1.03 | 1.03 | 1.21 | 1.27 | 1.03 | 0.91 | 0.795 | 0.648 | – | – | – | – | – | – | – | – | 0.898
18 | NCI-H1703 | 0.896 | 1.2 | 0.945 | 1.16 | 0.939 | 0.253 | 0.247 | 0.275 | – | – | – | – | – | – | – | – | –
19 | CAL-12T | – | 0.848 | 0.604 | 0.617 | 0.599 | 0.479 | 0.344 | 0.388 | 0.443 | 0.464 | 0.413 | 0.43 | – | – | – | – | 0.339
20 | NCI-H596 | 0.866 | 1.17 | 1.16 | 0.999 | 1.02 | 0.399 | 0.378 | 0.335 | – | – | – | – | 0.992 | 0.981 | 0.99 | 1.67 | 0.399
21 | A549 | 1.01 | 0.912 | 1.06 | 0.971 | 0.918 | 0.517 | 0.471 | 0.312 | – | – | – | – | 0.314 | 0.259 | 0.306 | 0.246 | 0.405
22 | NCI-H441 | – | – | – | – | – | 0.55 | 0.426 | 0.453 | 0.213 | 0.233 | 0.2 | 0.234 | 0.28 | 0.227 | 0.202 | 0.214 | 0.42
23 | SW 900 | – | – | – | – | – | – | – | – | 0.432 | 0.481 | 0.453 | 0.487 | 0.517 | 0.433 | 0.368 | 0.401 | –
24 | IA-LM | 0.538 | 0.413 | 0.599 | 0.952 | 0.537 | 0.35 | 0.308 | 0.316 | – | – | – | – | – | – | – | – | 0.234
